{"source": "PubChem BioAssay AID1259409", "about": "(Chemical Carcinogenesis Research Information System (CCRIS), 2018)", "origin": "cited, not measured here", "test_system": "rodent chemically induced tumor inhibition, incidence and multiplicity", "assay": "CCRIS tumor inhibitor studies", "note": "Where “and” joins values, the source holds several entries; their conditions need not be identical. Equal entries are not always repeated."}
{"compound": "CC(O)CCC(=O)c1ccccc1", "note": "(stereo not drawn)", "values": [{"measurement": "tumour outcome (control, treated, inhibition, significance)", "setting": "Carcinogen: 4-(METHYLNITROSAMINO)-1-(3-PYRIDYL)-1-BUTANONE, 64091-91-4, Dose [Inhibitor]: 0, 25 UMOL IN 0.1 ML CORN OIL ONCE 2 HR PRIOR TO CARCINOGEN DOSE (STUDY DURATION: 16 WK), Route [Inhibitor]: GAVAGE, Species: MOUSE, Strain/Sex: STRAIN-A/FEMALE, Target Tissue: Type of Lesion: LUNG: ADENOMA, Dose [Carcinogen]: 10 UMOL IN 0.1 ML SALINE ONCE, Promoter: NONE USED", "result": "100%, 95%, 5%, not significant"}, {"measurement": "tumour outcome (control, treated, inhibition, significance)", "setting": "Carcinogen: 4-(METHYLNITROSAMINO)-1-(3-PYRIDYL)-1-BUTANONE, 64091-91-4, Dose [Inhibitor]: 0, 25 UMOL IN 0.1 ML CORN OIL ONCE 2 HR PRIOR TO CARCINOGEN DOSE (STUDY DURATION: 16 WK), Route [Inhibitor]: GAVAGE, Species: MOUSE, Strain/Sex: STRAIN-A/FEMALE, Target Tissue: Type of Lesion: LUNG: TUMOR, Dose [Carcinogen]: 10 UMOL IN 0.1 ML SALINE ONCE, Promoter: NONE USED", "result": "100%, 100%, 0%, not significant"}]}
{"compound": "O=C(O)[C@@H]1CCCN1", "note": "(tested in a mixture with another compound)", "values": [{"measurement": "tumour outcome (control, treated, inhibition, significance)", "setting": "Carcinogen: N-NITROSODIETHYLAMINE, 55-18-5, Dose [Inhibitor]: 0, 50 MG/KG 2/WK 1 HR PRIOR TO AND 24 HR POST CARCINOGEN TREATMENT FOR 10 WK (STUDY DURATION: 28 WK), Route [Inhibitor]: INTRAPERITONEAL, Species: RAT, Strain/Sex: BD-6/MALE, Target Tissue: Type of Lesion: LIVER: TUMOR, Dose [Carcinogen]: 80 MG/KG 1/WK FOR 10 WK, Promoter: NONE USED", "result": "22/23 (96%), 5/23 (22%), 77%, p<0.001"}, {"measurement": "tumour outcome (control, treated, inhibition, significance)", "setting": "Carcinogen: N-NITROSODIETHYLAMINE, 55-18-5, Dose [Inhibitor]: 0, 100 MG/KG 2/WK 1 HR PRIOR TO AND 24 HR POST CARCINOGEN TREATMENT FOR 10 WK (STUDY DURATION: 28 WK), Route [Inhibitor]: INTRAPERITONEAL, Species: RAT, Strain/Sex: BD-6/MALE, Target Tissue: Type of Lesion: LIVER: TUMOR, Dose [Carcinogen]: 80 MG/KG 1/WK FOR 10 WK, Promoter: NONE USED", "result": "22/23 (96%), 9/21 (43%), 55%, p<0.001"}, {"measurement": "tumour outcome (control, treated, inhibition, significance)", "setting": "Carcinogen: N-NITROSODIETHYLAMINE, 55-18-5, Dose [Inhibitor]: 0, 100 MG/KG 2/WK 1 HR PRIOR TO AND 24 HR POST CARCINOGEN TREATMENT FOR 10 WK (STUDY DURATION: 40 WK), Route [Inhibitor]: INTRAPERITONEAL, Species: RAT, Strain/Sex: BD-6/MALE, Target Tissue: Type of Lesion: LIVER: TUMOR, Dose [Carcinogen]: 80 MG/KG 1/WK FOR 10 WK, Promoter: NONE USED", "result": "22/23 (96%), 8/20 (40%), 58%, not calculated"}]}
{"compound": "CC(C)(C)c1cc(CO)cc(C(C)(C)C)c1O", "values": [{"measurement": "tumour outcome (control, treated, inhibition, significance)", "setting": "Carcinogen: 7,12-DIMETHYLBENZ[A]ANTHRACENE, 57-97-6, Dose [Inhibitor]: 0, 200 MG/KG BW/D FOR 3 WK BEGINNING 2 WK PRIOR TO CARCINOGEN DOSE (STUDY DURATION: 24 WK), Route [Inhibitor]: INTRAPERITONEAL, Species: RAT, Strain/Sex: SPRAGUE-DAWLEY/FEMALE, Target Tissue: Type of Lesion: MAMMARY GLAND: TUMOR, Dose [Carcinogen]: 33.3 MG/KG BW IN 0.25 ML CORN OIL ONCE AT 50 D OF AGE, Promoter: NONE USED", "result": "91%, 81%, 11%, not significant"}]}
{"compound": "Cc1c(C)c2c(c(C)c1O)CCC(C)(CCCC(C)CCCC(C)CCCC(C)C)O2", "note": "(stereo not drawn)", "values": [{"measurement": "tumour outcome (control, treated, inhibition, significance)", "setting": "Carcinogen: N-NITROSOMETHYLBENZYLAMINE, 937-40-6, Dose [Inhibitor]: 30, 172 MG/KG IN DIET BEGINNING POST CARCINOGEN TREATMENT AND CONTINUING FOR 22 WK (STUDY DURATION: 25 WK), Route [Inhibitor]: ORAL, Species: MOUSE, Strain/Sex: C57BL/FEMALE, Target Tissue: Type of Lesion: ESOPHAGUS: TUMOR, Dose [Carcinogen]: 0.2 MG/KG IN CORN OIL 3/WK FOR 3 WK, Promoter: ETHANOL, 64-17-5", "result": "10/17 (59%), 6/16 (38%), 36%, not calculated"}, {"measurement": "tumour outcome (control, treated, inhibition, significance)", "setting": "Carcinogen: N-NITROSOMETHYLBENZYLAMINE, 937-40-6, Dose [Inhibitor]: 30, 172 MG/KG IN DIET BEGINNING POST CARCINOGEN TREATMENT AND CONTINUING FOR 22 WK (STUDY DURATION: 25 WK), Route [Inhibitor]: ORAL, Species: MOUSE, Strain/Sex: C57BL/FEMALE, Target Tissue: Type of Lesion: ESOPHAGUS: TUMOR, Dose [Carcinogen]: 0.2 MG/KG IN CORN OIL 3/WK FOR 3 WK, Promoter: NONE USED", "result": "6/15 (40%), 3/15 (20%), 50%, not calculated"}, {"measurement": "tumour outcome (control, treated, inhibition, significance)", "setting": "Carcinogen: UVB IRRADIATION, Dose [Inhibitor]: 0, 25 MG IN 200 µL ACETONE 3/WK FOR DURATION OF STUDY BEGINNING 3 WK PRIOR TO IRRADIATION (STUDY DURATION: 33 WK), Route [Inhibitor]: DERMAL, Species: MOUSE, Strain/Sex: C3H/HEN/FEMALE, Target Tissue: Type of Lesion: SKIN: TUMOR, Dose [Carcinogen]: 6 J/M2/SEC 30 MIN/D, 5 D/WK FOR 27 WK, Promoter: NONE USED", "result": "81%, 42%, 48%, p=0.0065"}]}
{"compound": "COc1ccc(O)cc1C(C)(C)C", "values": [{"measurement": "tumour outcome (control, treated, inhibition, significance)", "setting": "Carcinogen: BENZO[A]PYRENE, 50-32-8, Dose [Inhibitor]: 0.03 MMOL/G OF DIET DAILY STARTING 7 D BEFORE AND CONTINUING THROUGH 3 D AFTER CARCINOGEN TREATMENT FOLLOWED BY OBSERVAT, Route [Inhibitor]: ORAL, Species: MOUSE, Strain/Sex: ICR/FEMALE, Target Tissue: Type of Lesion: FORESTOMACH: NEOPLASM, Dose [Carcinogen]: 1 MG IN 0.2 ML CORN OIL 2/WK FOR 4 WK, Promoter: NONE USED", "result": "94%, 60%, 36%, p<0.05 and 90%, 65%, 28%, not significant"}, {"measurement": "tumour outcome (control, treated, inhibition, significance)", "setting": "Carcinogen: CIPROFIBRATE, 52214-84-3, Dose [Inhibitor]: 0.5% IN DIET FOR 60 WK (STUDY DURATION: 60 WK), Route [Inhibitor]: ORAL, Species: RAT, Strain/Sex: F344/MALE, Target Tissue: Type of Lesion: LIVER: TUMOR, Dose [Carcinogen]: 10 MG/KG/BW IN DIET SIMULTANEOUSLY WITH INHIBITOR FOR 60 WK, Promoter: NONE USED", "result": "22/25 (88%), 12/25 (48%), 45%, p<0.005"}]}
{"compound": "CC1(S(=O)(=O)O)CC(=O)c2ccccc2C1=O", "note": "(stereo not drawn)", "values": [{"measurement": "tumour outcome (control, treated, inhibition, significance)", "setting": "Carcinogen: 1,2-DIMETHYLHYDRAZINE, 540-73-8, Dose [Inhibitor]: 0, 20 MG/KG 3/WK FOR 24 WK BEGINNING FIRST WK OF CARCINOGEN TREATMENT (STUDY DURATION: 28 WK), Route [Inhibitor]: GAVAGE, Species: MOUSE, Strain/Sex: ICR/FEMALE, Target Tissue: Type of Lesion: COLON: TUMOR, Dose [Carcinogen]: 20 MG/KG 1/WK FOR 20 WK, Promoter: NONE USED", "result": "9/13 (69%), 4/13 (31%), 55%, p<0.05"}, {"measurement": "tumour outcome (control, treated, inhibition, significance)", "setting": "Carcinogen: 1,2-DIMETHYLHYDRAZINE, 540-73-8, Dose [Inhibitor]: 0, 20 MG/KG 3/WK FOR 28 WK BEGINNING FIRST WK OF CARCINOGEN TREATMENT (STUDY DURATION: 28 WK), Route [Inhibitor]: GAVAGE, Species: MOUSE, Strain/Sex: ICR/FEMALE, Target Tissue: Type of Lesion: COLON: TUMOR, Dose [Carcinogen]: 20 MG/KG 1/WK FOR 20 WK, Promoter: NONE USED", "result": "13/13 (100%), 8/13 (62%), 38%, p<0.05"}, {"measurement": "tumour outcome (control, treated, inhibition, significance)", "setting": "Carcinogen: 1,2-DIMETHYLHYDRAZINE, 540-73-8, Dose [Inhibitor]: 0, 40 MG/KG 3/WK FOR 24 WK BEGINNING FIRST WK OF CARCINOGEN TREATMENT (STUDY DURATION: 28 WK), Route [Inhibitor]: GAVAGE, Species: MOUSE, Strain/Sex: ICR/FEMALE, Target Tissue: Type of Lesion: COLON: TUMOR, Dose [Carcinogen]: 20 MG/KG 1/WK FOR 20 WK, Promoter: NONE USED", "result": "9/13 (69%), 4/13 (31%), 55%, p<0.05"}, {"measurement": "tumour outcome (control, treated, inhibition, significance)", "setting": "Carcinogen: 1,2-DIMETHYLHYDRAZINE, 540-73-8, Dose [Inhibitor]: 0, 40 MG/KG 3/WK FOR 28 WK BEGINNING FIRST WK OF CARCINOGEN TREATMENT (STUDY DURATION: 28 WK), Route [Inhibitor]: GAVAGE, Species: MOUSE, Strain/Sex: ICR/FEMALE, Target Tissue: Type of Lesion: COLON: TUMOR, Dose [Carcinogen]: 20 MG/KG 1/WK FOR 20 WK, Promoter: NONE USED", "result": "13/13 (100%), 8/13 (62%), 38%, p<0.05"}]}
{"compound": "Nc1nc(N)c2nc(CNc3ccc(C(=O)N[C@@H](CCC(=O)O)C(=O)O)cc3)cnc2n1", "values": [{"measurement": "tumour outcome (control, treated, inhibition, significance)", "setting": "Carcinogen: URETHANE, 51-79-6, Dose [Inhibitor]: 0.25 UG/G BW IN DISTILLED WATER 1/D FOR 3 D FOLLOWED BY 0.5 UG/G BW ONCE ADMINISTERED AT SAME TIME AS CARCINOGEN TREATME, Route [Inhibitor]: INTRAPERITONEAL, Species: MOUSE, Strain/Sex: SWR/MALE, Target Tissue: Type of Lesion: LUNG: ADENOMA, Dose [Carcinogen]: 0.5 MG/G BW IN DISTILLED WATER ONCE AT 13 WK OF AGE, Promoter: NONE USED", "result": "90%, 74%, 18%, not significant"}, {"measurement": "tumour outcome (control, treated, inhibition, significance)", "setting": "Carcinogen: URETHANE, 51-79-6, Dose [Inhibitor]: 0.25 UG/G BW IN DISTILLED WATER 1/D FOR 3 D FOLLOWED BY 0.5 UG/G BW ONCE ADMINISTERED AT SAME TIME AS CARCINOGEN TREATME, Route [Inhibitor]: INTRAPERITONEAL, Species: MOUSE, Strain/Sex: SWR/MALE, Target Tissue: Type of Lesion: LUNG: ADENOMA, Dose [Carcinogen]: 0.5 MG/G BW IN DISTILLED WATER ONCE AT 15 WK OF AGE, Promoter: NONE USED", "result": "82%, 90%, -10%, not significant"}]}
{"compound": "N[C@@H](Cc1ccccc1)C(=O)O", "values": [{"measurement": "tumour outcome (control, treated, inhibition, significance)", "setting": "Carcinogen: N-METHYL-N'-NITRO-N-NITROSOGUANIDINE, 70-25-7, Dose [Inhibitor]: 0, 6% IN DIET FOR 26 WK ADMINISTERED POST CARCINOGEN DOSE (STUDY DURATION: 52 WK ), Route [Inhibitor]: ORAL, Species: RAT, Strain/Sex: WISTAR/MALE, Target Tissue: Type of Lesion: GLANDULAR STOMACH: ADENOCARCINOMA, Dose [Carcinogen]: 50 UG/ML DRINKING WATER FOR 26 WK", "result": "18/25 (72%), 9/25 (36%), 50%, not calculated"}]}
